Assay results from the supplement of paper PMC10307832.

Assays:
Experiment in all cases: relative viability (nuclei count vs DMSO), 5 days (fraction); higher = more cells survive
NCI-H1993 = test system: NCI-H1993
How it was run: (§1)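 Lung cancer cell lines in 1536-well plates were dosed by pin tool the day after seeding, either with one drug alone or with a fixed anchor-drug dose plus five library-drug doses (not always all listed) in √10 steps. After 5 days, cells were fixed and their nuclei stained in one step (final 0.05% Triton X-100, 1% formaldehyde, 1 ug/ml Hoechst), then counted on 4× images. Relative viability is the nuclei count in treated wells divided by that in vehicle wells. Values are medians of duplicate plates.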

LOU-NH91 = test system: LOU-NH91
How it was run: as §1

NCI-H596 = test system: NCI-H596
How it was run: as §1

NCI-H2347 = test system: NCI-H2347
How it was run: as §1

BEN = test system: BEN
How it was run: as §1

NCI-H2126 = test system: NCI-H2126
How it was run: as §1

NCI-H441 = test system: NCI-H441
How it was run: as §1

HCC-44 = test system: HCC-44
How it was run: as §1

EMC-BAC-2 = test system: EMC-BAC-2
How it was run: as §1

NCI-H2087 = test system: NCI-H2087
How it was run: as §1

NCI-H2023 = test system: NCI-H2023
How it was run: as §1

LCLC-103H = test system: LCLC-103H
How it was run: as §1

NCI-H23 = test system: NCI-H23
How it was run: as §1

201T = test system: 201T
How it was run: as §1

NCI-H3122 = test system: NCI-H3122
How it was run: as §1

NCI-H838 = test system: NCI-H838
How it was run: as §1

HARA = test system: HARA
How it was run: as §1

NCI-H522 = test system: NCI-H522
How it was run: as §1

NCI-H647 = test system: NCI-H647
How it was run: as §1

NCI-H650 = test system: NCI-H650
How it was run: as §1

NCI-H1395 = test system: NCI-H1395
How it was run: as §1

NCI-H727 = test system: NCI-H727
How it was run: as §1

Q: `Nc1ccn([C@@H]2O[C@H](CO)[C@@H](O)[C@@H]2O)c(=O)n1` [Cytarabine] + N=C(N)NC(=N)NCCc1ccccc1 [Phenformin] (partner 250 µM) was tested. Which relative viability (NCI-H1993; first compound 0.005 µM) did it give?
A: 0.588

Q: And the relative viability (NCI-H1993; first compound 0.01581 µM)?
A: 0.483

Q: And the relative viability (NCI-H1993; first compound 0.05 µM)?
A: 0.529

Q: And the relative viability (NCI-H1993; first compound 0.1581 µM)?
A: 0.515

Q: What about the relative viability (NCI-H1993; first compound 0.5 µM) of the same compound?
A: 0.422

Q: What about the relative viability (LOU-NH91; first compound 0.005 µM) of the same compound?
A: 0.732

Q: And the relative viability (LOU-NH91; first compound 0.01581 µM)?
A: 0.75

Q: What about the relative viability (LOU-NH91; first compound 0.05 µM) of the same compound?
A: 0.467

Q: What about the relative viability (LOU-NH91; first compound 0.1581 µM) of the same compound?
A: 0.413

Q: And the relative viability (LOU-NH91; first compound 0.5 µM)?
A: 0.508

Q: What about the relative viability (NCI-H596; first compound 0.005 µM) of the same compound?
A: 0.801

Q: What about the relative viability (NCI-H596; first compound 0.01581 µM) of the same compound?
A: 0.613

Q: And the relative viability (NCI-H596; first compound 0.05 µM)?
A: 0.694

Q: What about the relative viability (NCI-H596; first compound 0.1581 µM) of the same compound?
A: 0.624

Q: What about the relative viability (NCI-H596; first compound 0.5 µM) of the same compound?
A: 0.447

Q: And the relative viability (NCI-H2347; first compound 0.005 µM)?
A: 0.381

Q: And the relative viability (NCI-H2347; first compound 0.01581 µM)?
A: 0.383

Q: What about the relative viability (NCI-H2347; first compound 0.05 µM) of the same compound?
A: 0.296

Q: And the relative viability (NCI-H2347; first compound 0.1581 µM)?
A: 0.273

Q: What about the relative viability (NCI-H2347; first compound 0.5 µM) of the same compound?
A: 0.291

Q: And the relative viability (BEN; first compound 0.005 µM)?
A: 0.193

Q: What about the relative viability (BEN; first compound 0.01581 µM) of the same compound?
A: 0.22

Q: What about the relative viability (BEN; first compound 0.05 µM) of the same compound?
A: 0.244

Q: What about the relative viability (BEN; first compound 0.1581 µM) of the same compound?
A: 0.195

Q: And the relative viability (BEN; first compound 0.5 µM)?
A: 0.212

Q: What about the relative viability (NCI-H2126; first compound 0.005 µM) of the same compound?
A: 0.472

Q: And the relative viability (NCI-H2126; first compound 0.01581 µM)?
A: 0.464

Q: What about the relative viability (NCI-H2126; first compound 0.05 µM) of the same compound?
A: 0.421

Q: And the relative viability (NCI-H2126; first compound 0.1581 µM)?
A: 0.277

Q: What about the relative viability (NCI-H2126; first compound 0.5 µM) of the same compound?
A: 0.271

Q: And the relative viability (NCI-H441; first compound 0.005 µM)?
A: 0.79

Q: What about the relative viability (NCI-H441; first compound 0.01581 µM) of the same compound?
A: 0.655

Q: What about the relative viability (NCI-H441; first compound 0.05 µM) of the same compound?
A: 0.783

Q: And the relative viability (NCI-H441; first compound 0.1581 µM)?
A: 0.399

Q: And the relative viability (NCI-H441; first compound 0.5 µM)?
A: 0.298

Q: What about the relative viability (HCC-44; first compound 0.005 µM) of the same compound?
A: 0.161

Q: And the relative viability (HCC-44; first compound 0.01581 µM)?
A: 0.15

Q: And the relative viability (HCC-44; first compound 0.05 µM)?
A: 0.142

Q: What about the relative viability (HCC-44; first compound 0.1581 µM) of the same compound?
A: 0.113

Q: What about the relative viability (HCC-44; first compound 0.5 µM) of the same compound?
A: 0.108

Q: And the relative viability (EMC-BAC-2; first compound 0.005 µM)?
A: 0.418

Q: And the relative viability (EMC-BAC-2; first compound 0.01581 µM)?
A: 0.482

Q: And the relative viability (EMC-BAC-2; first compound 0.05 µM)?
A: 0.398

Q: And the relative viability (EMC-BAC-2; first compound 0.1581 µM)?
A: 0.268

Q: And the relative viability (EMC-BAC-2; first compound 0.5 µM)?
A: 0.196

Q: What about the relative viability (NCI-H2087; first compound 0.005 µM) of the same compound?
A: 0.384

Q: And the relative viability (NCI-H2087; first compound 0.01581 µM)?
A: 0.308

Q: What about the relative viability (NCI-H2087; first compound 0.05 µM) of the same compound?
A: 0.373

Q: What about the relative viability (NCI-H2087; first compound 0.1581 µM) of the same compound?
A: 0.229

Q: What about the relative viability (NCI-H2087; first compound 0.5 µM) of the same compound?
A: 0.131

Q: And the relative viability (NCI-H2023; first compound 0.005 µM)?
A: 0.287

Q: What about the relative viability (NCI-H2023; first compound 0.01581 µM) of the same compound?
A: 0.224

Q: And the relative viability (NCI-H2023; first compound 0.05 µM)?
A: 0.183

Q: What about the relative viability (NCI-H2023; first compound 0.1581 µM) of the same compound?
A: 0.0883

Q: And the relative viability (NCI-H2023; first compound 0.5 µM)?
A: 0.0962

Q: And the relative viability (LCLC-103H; first compound 0.005 µM)?
A: 0.332

Q: And the relative viability (LCLC-103H; first compound 0.01581 µM)?
A: 0.365

Q: What about the relative viability (LCLC-103H; first compound 0.05 µM) of the same compound?
A: 0.335

Q: And the relative viability (LCLC-103H; first compound 0.1581 µM)?
A: 0.31

Q: And the relative viability (LCLC-103H; first compound 0.5 µM)?
A: 0.311

Q: What about the relative viability (NCI-H23; first compound 0.005 µM) of the same compound?
A: 0.784

Q: What about the relative viability (NCI-H23; first compound 0.01581 µM) of the same compound?
A: 0.649

Q: And the relative viability (NCI-H23; first compound 0.05 µM)?
A: 0.721

Q: And the relative viability (NCI-H23; first compound 0.1581 µM)?
A: 0.367

Q: And the relative viability (NCI-H23; first compound 0.5 µM)?
A: 0.156

Q: And the relative viability (201T; first compound 0.005 µM)?
A: 0.369

Q: What about the relative viability (201T; first compound 0.01581 µM) of the same compound?
A: 0.432

Q: What about the relative viability (201T; first compound 0.05 µM) of the same compound?
A: 0.428

Q: What about the relative viability (201T; first compound 0.1581 µM) of the same compound?
A: 0.352

Q: And the relative viability (201T; first compound 0.5 µM)?
A: 0.356

Q: What about the relative viability (NCI-H3122; first compound 0.005 µM) of the same compound?
A: 0.347

Q: What about the relative viability (NCI-H3122; first compound 0.01581 µM) of the same compound?
A: 0.323

Q: And the relative viability (NCI-H3122; first compound 0.05 µM)?
A: 0.293

Q: And the relative viability (NCI-H3122; first compound 0.1581 µM)?
A: 0.244

Q: And the relative viability (NCI-H3122; first compound 0.5 µM)?
A: 0.18

Q: And the relative viability (NCI-H838; first compound 0.005 µM)?
A: 0.482

Q: What about the relative viability (NCI-H838; first compound 0.01581 µM) of the same compound?
A: 0.532

Q: And the relative viability (NCI-H838; first compound 0.05 µM)?
A: 0.422

Q: And the relative viability (NCI-H838; first compound 0.1581 µM)?
A: 0.241

Q: What about the relative viability (NCI-H838; first compound 0.5 µM) of the same compound?
A: 0.201

Q: What about the relative viability (HARA; first compound 0.005 µM) of the same compound?
A: 0.359

Q: What about the relative viability (HARA; first compound 0.01581 µM) of the same compound?
A: 0.325

Q: What about the relative viability (HARA; first compound 0.05 µM) of the same compound?
A: 0.296

Q: And the relative viability (HARA; first compound 0.1581 µM)?
A: 0.196

Q: And the relative viability (HARA; first compound 0.5 µM)?
A: 0.0852

Q: And the relative viability (NCI-H522; first compound 0.005 µM)?
A: 0.669

Q: What about the relative viability (NCI-H522; first compound 0.01581 µM) of the same compound?
A: 0.602

Q: What about the relative viability (NCI-H522; first compound 0.05 µM) of the same compound?
A: 0.554

Q: And the relative viability (NCI-H522; first compound 0.1581 µM)?
A: 0.489

Q: What about the relative viability (NCI-H522; first compound 0.5 µM) of the same compound?
A: 0.449

Q: And the relative viability (NCI-H647; first compound 0.005 µM)?
A: 0.181

Q: And the relative viability (NCI-H647; first compound 0.01581 µM)?
A: 0.204

Q: And the relative viability (NCI-H647; first compound 0.05 µM)?
A: 0.193

Q: And the relative viability (NCI-H647; first compound 0.1581 µM)?
A: 0.0662

Q: What about the relative viability (NCI-H647; first compound 0.5 µM) of the same compound?
A: 0.0608

Q: And the relative viability (NCI-H650; first compound 0.005 µM)?
A: 0.448

Q: And the relative viability (NCI-H650; first compound 0.01581 µM)?
A: 0.33

Q: What about the relative viability (NCI-H650; first compound 0.05 µM) of the same compound?
A: 0.185

Q: What about the relative viability (NCI-H650; first compound 0.1581 µM) of the same compound?
A: 0.194

Q: And the relative viability (NCI-H650; first compound 0.5 µM)?
A: 0.187

Q: What about the relative viability (NCI-H1395; first compound 0.005 µM) of the same compound?
A: 0.411

Q: What about the relative viability (NCI-H1395; first compound 0.01581 µM) of the same compound?
A: 0.392

Q: And the relative viability (NCI-H1395; first compound 0.05 µM)?
A: 0.353

Q: And the relative viability (NCI-H1395; first compound 0.1581 µM)?
A: 0.319

Q: And the relative viability (NCI-H1395; first compound 0.5 µM)?
A: 0.31

Q: What about the relative viability (NCI-H727; first compound 0.005 µM) of the same compound?
A: 0.451

Q: And the relative viability (NCI-H727; first compound 0.01581 µM)?
A: 0.479

Q: What about the relative viability (NCI-H727; first compound 0.05 µM) of the same compound?
A: 0.486

Q: What about the relative viability (NCI-H727; first compound 0.1581 µM) of the same compound?
A: 0.406

Q: And the relative viability (NCI-H727; first compound 0.5 µM)?
A: 0.429
